Source: patent publication US7186861B2 (priority 2002, dated 2007)

System: Plasmopara viticola
Assay: Activity against downy mildew of grapes caused by Plasmopara viticola (lasting effect, inoculation 7 days after spraying)
Type: in vivo
Settings: 63 ppm active compound; potted vines Müller-Thurgau; inoculated 7 days after spraying; untreated plants 90% infected
Protocol: The active compounds were prepared, separately or together, as a 10% emulsion in a mixture of 70% by weight of cyclohexanone, 20% by weight of Nekanil® LN (Lutensol® AP6, wetting agent with an emulsifying and dispersing action based on ethoxylated alkylphenols) and 10% by weight of Wettol® EM (nonionic emulsifier based on ethoxylated castor oil) and were appropriately diluted with water to the desired concentration.
Leaves of potted vines of the variety “Müller-Thurgau” were sprayed to runoff point with an aqueous preparation of active compound prepared from a stock solution consisting of 10% of active compound, 85% of cyclohexanone and 5% of emulsifier. In order to be able to assess the lasting effects of the substances, the plants, after the spray coating had dried on, were placed in a greenhouse for 7 days. Only then were the leaves inoculated with an aqueous suspension of zoospores of Plasmopara viticola. The vines were then initially placed in a chamber saturated with water vapor at 24° C. for 48 hours and subsequently in a greenhouse at temperatures of between 20 and 30° C. for 5 days. After this period of time, the plants were once more placed in a humid chamber for 16 hours to accelerate the eruption of sporangiphores. The extent to which the infection had developed on the undersides of the leaves was then determined visually.

| Compound | infection [%] |
| --- | --- |
| CCC=C(C(=O)NCCc1ccc(OCC)c(OC)c1)c1ccc(Cl)c(Cl)c1 [Compound I-44] | 3 |
| CC/C=C(/C(=O)NCCc1ccc(OCC)c(OC)c1)c1ccc(Cl)c(Cl)c1 [compound A] | 40 |
